Patent US7423149B2, “Substituted n-aryl amidines as selective D1 dopamine receptor antagonists for the treatment of obesity and CNS disorders” (Schering Corporation, priority 2003, dated 2008)
pKi: −log10 of the molar value.

Molecular target: T1, human Dopamine D1 receptor (Homo sapiens, UniProt P21728)
T1 construct: expressed in transfected cells; host or cells: Ltk- cells (mouse fibroblasts), membrane preparation
Test: radioligand binding competition assay, displacement of [3H]SCH 23390 from D1 receptor (Ltk-cells membranes);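 note: under 5 nM class also requires D2 to D1 selectivity above 500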
Settings: class combines Ki (D1) and, for A and B, D2:D1 selectivity (Ki D2 / Ki D1); read-out: D1 binding and D2:D1 Selectivity
Text: Biological Activity: Compounds from this disclosure have been biologically characterized by their ability to displace a known D1-like selective ligand, [3H]SCH 23390 from the human Dopamine D1 receptor, and a known D2-like selective ligand, [3H] Methylspiperone, from the human Dopamine D2 and D4 receptors.
Affinity values (Ki) of compounds at human dopamine receptors were ascertained using radioligand binding competition assays. Cells expressing D1 (Ltk-cells), D2 (long variant, Ltk-cells), D4 (CHO cells) and D5 (GH4C1 cells) receptors were lysed in hypotonic buffer for membrane preparation. Membranes were incubated with various concentrations of test compound and 1 nM [3H] SCH 23390 (D1 and D5) and 0.2 nM [3H] Methylspiperone for (D2 and D4) assays. Non-specific binding was defined as binding in the presence of 10 micromolar of SCH 23390 for D1 and D5 assays and 10 micromolar butaclamol for D2 and D4 assays. Following incubation to equilibrium (1 hour at room temperature), bound radioligand was separated from free by rapid filtration. Bound radioactivity on the dried filters was quantified by liquid scintillation counting.
Selectivity is determined by dividing Ki for D2, D4 or D5 receptors by Ki for D1 receptor.

T1 sequence (P21728 whole entry): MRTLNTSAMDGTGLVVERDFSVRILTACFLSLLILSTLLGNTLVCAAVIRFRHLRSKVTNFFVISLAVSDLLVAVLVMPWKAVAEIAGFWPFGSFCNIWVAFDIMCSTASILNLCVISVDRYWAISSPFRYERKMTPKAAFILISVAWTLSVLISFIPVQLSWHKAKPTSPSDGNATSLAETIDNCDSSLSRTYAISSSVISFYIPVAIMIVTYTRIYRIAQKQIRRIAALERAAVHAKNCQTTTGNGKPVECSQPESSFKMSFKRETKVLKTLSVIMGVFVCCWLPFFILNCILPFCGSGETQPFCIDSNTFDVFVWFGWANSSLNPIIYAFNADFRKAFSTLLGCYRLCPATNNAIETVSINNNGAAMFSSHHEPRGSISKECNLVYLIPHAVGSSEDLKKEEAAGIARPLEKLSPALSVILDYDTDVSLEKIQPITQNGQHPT

SMILES	pKi
CN(C)c1ccc(/C=C/C(=N)Nc2ccc(Cl)cc2)cc1 [Example 37]	7.30 to 8.00
N=C(/C=C/c1ccncc1)Nc1ccc(Cl)cc1 [Example 14]	5.00 to 7.30
COc1ccc(NC(=N)/C=C/c2ccc(Cc3cccnc3)cc2)cc1Cl [Example 9]	5.00 to 7.30
CCN(CC)c1ccc(/C=C/C(=N)Nc2ccc(Cl)cc2)c(Cl)c1 [Example 40]	> 8.00
N=C(/C=C/c1ccc2c(c1)OCO2)Nc1ccc(Cl)cc1 [Example 72]	7.30 to 8.00
COc1ccc(/C=C/C(=N)Nc2cccc(C(F)(F)F)c2)cc1 [Example 1]	5.00 to 7.30
C[C@H]1CNCCN1c1ccc(/C=C/C(=N)Nc2ccc(Cl)cc2)c(Cl)c1 [Example 34]	> 8.30
N=C(/C=C/c1ccc(Cl)cc1Cl)Nc1ccc(Cl)cc1 [Example 13]	7.30 to 8.00
Cc1ccc(NC(=N)/C=C/c2ccc(Cc3cccnc3)cc2)cc1 [Example 31]	7.30 to 8.00
CN1c2ccccc2Sc2cc(/C=C/C(=N)Nc3ccc(Cl)cc3)ccc21 [Example 50]	7.30 to 8.00
N=C(/C=C/c1ccc(-c2ccc3[nH]ccc3c2)cc1)Nc1ccc(Cl)cc1 [Example 21, N-(4-chloro-phenyl)-3-[4-(1H -indol-5-yl)-phenyl]-acrylamidine]	> 8.00
COc1ccc(/C=C/C(=N)Nc2cc(F)cc(F)c2)cc1 [Example 55]	7.30 to 8.00
CN1CCN(Cc2ccc(-c3ccc(/C=C/C(=N)Nc4ccc(Cl)cc4)cc3)cc2)CC1 [Example 52]	7.30 to 8.00
N=C(/C=C/c1ccc(Cc2cccnc2)cc1)Nc1ccc2c(c1)CCC2 [Example 15]	7.30 to 8.00
N=C(/C=C/c1ccc(-c2ccc(CN3CCNCC3)cc2)cc1)Nc1ccc(Cl)cc1 [Example 68]	7.30 to 8.00
COc1ccc(/C=C/C(=N)Nc2ccc(Br)cc2)cc1 [Example 23]	7.30 to 8.00
N=C(/C=C/c1ccc(N2CCN(C3CCCC(C(F)(F)F)C3)CC2)cc1Cl)Nc1ccc(Cl)cc1 (centres unmarked) [Example 74]	7.30 to 8.00
CC(CN1CCN(c2ccc(/C=C/C(=N)Nc3ccc(Cl)cc3)c(Cl)c2)CC1)c1ccccc1 (centres unmarked) [Example 45]	7.30 to 8.00
N=C(/C=C/c1ccc(Cc2cccnc2)cc1)Nc1ccc(Br)cc1 [Example 24]	7.30 to 8.00
N=C(/C=C/c1ccc(Cl)s1)Nc1ccc(Cl)cc1 [Example 67]	7.30 to 8.00
N#Cc1ccc(-c2ccc(/C=C/C(=N)Nc3ccc(Cl)cc3)cc2)cc1 [Example 43]	> 8.00
N=C(/C=C/c1ccc(Cc2cccnc2)cc1)Nc1ccc(O)cc1 [Example 8]	5.00 to 7.30
N=C(Nc1ccc(Cl)cc1)c1ccc2cc(N3CCN(Cc4ccccc4)CC3)ccc2c1 [Example 61]	7.30 to 8.00
CCC1CCC(N2CCN(c3ccc(/C=C/C(=N)Nc4ccc(Cl)cc4)c(Cl)c3)CC2)CC1 (centres unmarked) [Example 56]	7.30 to 8.00

The remaining lines, values ahead:

pKi	SMILES
5.00 to 7.30	N=C(CCc1ccc(Cc2c[nH]cn2)cc1)Nc1ccc(Cl)cc1 [Example 134]
5.00 to 7.30	COc1ccc(/C=C/C(=N)Nc2cccc([N+](=O)[O-])c2)cc1 [Example 82]
5.00 to 7.30	N=C(/C=C/c1cc(Cl)cc(Cl)c1)Nc1ccc(Cl)cc1 [Example 109]
5.00 to 7.30	N=C(/C=C/c1c(Cl)cccc1Cl)Nc1ccc(Cl)cc1 [Example 103]
5.00 to 7.30	N=C(/C=C/c1ccc(-n2ccnc2)cc1)Nc1ccc(Cl)cc1 [Example 88]
5.00 to 7.30	N=C(/C=C/c1ccc(Cl)c(Cl)c1)Nc1ccc(Cl)cc1 [Example 102]
5.00 to 7.30	N=C(/C=C/c1ccc(-c2cccc(C(=O)O)c2)cc1)Nc1ccc(Cl)cc1 [Example 120]
5.00 to 7.30	CCC(C)CN1CCN(c2ccc(/C=C/C(=N)Nc3ccc(Cl)cc3)c(Cl)c2)CC1 (centres unmarked) [Example 83]
5.00 to 7.30	CC(C)(C)OC(=O)N1CCN(Cc2ccc(-c3ccc(/C=C/C(=N)Nc4ccc(Cl)cc4)cc3)cc2)CC1 [Example 75]
5.00 to 7.30	N=C(Nc1ccc(Cl)cc1)c1ccc2cc(O)ccc2c1 [Example 106, N-(4-chloro-phenyl)-6-hydroxy-naphthalene-2-carboxamidine]
5.00 to 7.30	COc1ccc(/C=C/C(=N)Nc2cccc(C#N)c2)cc1 [Example 91]
